pKi: −log10 of the molar value.
Target: T1, Mandelate racemase (Pseudomonas putida, UniProt P11444)
T1 sequence (P11444 whole entry): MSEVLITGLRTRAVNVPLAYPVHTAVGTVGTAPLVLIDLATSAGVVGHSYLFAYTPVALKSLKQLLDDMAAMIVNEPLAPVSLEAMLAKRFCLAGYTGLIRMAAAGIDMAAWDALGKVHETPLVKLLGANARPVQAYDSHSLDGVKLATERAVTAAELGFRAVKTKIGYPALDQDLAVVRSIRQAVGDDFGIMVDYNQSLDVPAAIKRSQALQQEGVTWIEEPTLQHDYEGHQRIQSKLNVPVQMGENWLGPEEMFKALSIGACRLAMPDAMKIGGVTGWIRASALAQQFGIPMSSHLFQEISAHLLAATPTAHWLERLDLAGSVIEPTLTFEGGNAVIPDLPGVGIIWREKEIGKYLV
Assay: Circular Dichroism (CD) Based Assays
Conditions: pH 7.5
Description: MR activity was assayed using a CD-based assay by following the change in ellipticity of mandelate at 262 nm using a thermostated quartz cuvette with a 1-cm light path (unless otherwise indicated) as described by Sharp et al. Allassays (total volume of 2 mL) were conducted at 25 °C in Na+ HEPES buffer (0.1 M, pH 7.5) containing MgCl2 (3.3 mM), BSA [0.005% (w/v)], and (R)-mandelate as the substrate. The concentration of MR was determined from its absorbance at 280 nm using an extinction coefficient of 53400 M^−1 cm^−1.

SMILES	pKi
O=C(O)C(=O)CF [3-fluoro-2-oxopropanoate]	2.89
O=C(O)C(=O)C(=O)O [Mesoxalate]	2.74
